Measured values reported in US9487479B2, “Small molecule inhibitors of N-terminus activation of the androgen receptor” (The University of British Columbia, priority 2008, dated 2016).

Columns and labels:
[1] = system: LNCaP cells; experiment: Cytotoxicity: cell morphology of treated LNCaP cells; format: cell-based, human; conditions: LNCaP cells treated for 48 h, 10 μM
From the text: From this extract, the pure active compound, Sintokamide A (CB3.1) was isolated and to ensure that the inhibitory effect of CB3.1 was not due to generally cytotoxicity, cell morphology of LNCaP cells was examined. […] Cells treated with R1881 are also shown to provide an indication of cell number and for comparison.

[2] = biological target: T1, AR NTD-Gal4DBD chimera protein (Gal4DBD-AR1-558) (Homo sapiens, UniProt P10275); experiment: FSK-induced transactivation of the AR NTD (Gal4-luciferase reporter in LNCaP cells); format: cell-based; conditions: 5 μg/ml, 1 hr pretreatment, FSK 50 μM for 24 h
T1 construct: co-transfected with the expression vector for Gal4DBD-AR1-558; expressed in transfected cells; host or cells: LNCaP cells
T1 sequence (P10275 1-558): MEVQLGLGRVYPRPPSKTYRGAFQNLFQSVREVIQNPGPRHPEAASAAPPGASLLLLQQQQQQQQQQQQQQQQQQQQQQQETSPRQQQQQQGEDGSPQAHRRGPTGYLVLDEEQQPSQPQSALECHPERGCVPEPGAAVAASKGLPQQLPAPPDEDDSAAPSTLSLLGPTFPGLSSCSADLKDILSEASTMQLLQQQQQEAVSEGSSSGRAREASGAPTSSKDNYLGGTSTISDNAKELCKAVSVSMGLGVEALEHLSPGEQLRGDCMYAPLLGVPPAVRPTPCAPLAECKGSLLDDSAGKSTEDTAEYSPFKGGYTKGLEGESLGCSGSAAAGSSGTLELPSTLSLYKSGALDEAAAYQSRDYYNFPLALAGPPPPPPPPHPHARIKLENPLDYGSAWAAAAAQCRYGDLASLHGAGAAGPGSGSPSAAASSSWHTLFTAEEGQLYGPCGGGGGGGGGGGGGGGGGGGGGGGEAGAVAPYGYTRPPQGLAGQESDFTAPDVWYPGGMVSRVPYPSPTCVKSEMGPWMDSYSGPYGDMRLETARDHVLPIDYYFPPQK
Method: Sintokamide A (CB3.1) (5 μg/ml) was tested for its ability to inhibit the AR NTD. LNCaP cells were co-transfected with the expression vector for Gal4DBD-AR1-558 and the complimentary 5XGal4UAS-luciferase reporter. Induction of this reporter by FSK is a measure of transactivation of the Gal4DBD-AR1-558 fusion protein (Sadar 1999 J. Biol. Chem. 274, 7777-7783).
To determine if CB3.1 blocked transactivation of the AR NTD, LNCaP cells were transfected with the plasmids for the AR NTD-Gal4DBD chimera protein and the Gal4-luciferase reporter and pretreated for 1 hr with CB3.1 (5 μg/ml) prior to addition of forskolin (FSK 50 μM) for an additional 24 h (see: Sadar et al. (1999) J. Biol. Chem. 274:7777-83).

[3] = biological target: T2, androgen receptor (AR) (Homo sapiens, UniProt P10275, T878A); experiment: PSA (6.1 kb)-luciferase reporter assay in LNCaP cells; format: cell-based; conditions: 5 μg/ml
T2 construct: endogenous in cells; host or cells: LNCaP human prostate cancer cells
T2 sequence (P10275 1-920 T878A): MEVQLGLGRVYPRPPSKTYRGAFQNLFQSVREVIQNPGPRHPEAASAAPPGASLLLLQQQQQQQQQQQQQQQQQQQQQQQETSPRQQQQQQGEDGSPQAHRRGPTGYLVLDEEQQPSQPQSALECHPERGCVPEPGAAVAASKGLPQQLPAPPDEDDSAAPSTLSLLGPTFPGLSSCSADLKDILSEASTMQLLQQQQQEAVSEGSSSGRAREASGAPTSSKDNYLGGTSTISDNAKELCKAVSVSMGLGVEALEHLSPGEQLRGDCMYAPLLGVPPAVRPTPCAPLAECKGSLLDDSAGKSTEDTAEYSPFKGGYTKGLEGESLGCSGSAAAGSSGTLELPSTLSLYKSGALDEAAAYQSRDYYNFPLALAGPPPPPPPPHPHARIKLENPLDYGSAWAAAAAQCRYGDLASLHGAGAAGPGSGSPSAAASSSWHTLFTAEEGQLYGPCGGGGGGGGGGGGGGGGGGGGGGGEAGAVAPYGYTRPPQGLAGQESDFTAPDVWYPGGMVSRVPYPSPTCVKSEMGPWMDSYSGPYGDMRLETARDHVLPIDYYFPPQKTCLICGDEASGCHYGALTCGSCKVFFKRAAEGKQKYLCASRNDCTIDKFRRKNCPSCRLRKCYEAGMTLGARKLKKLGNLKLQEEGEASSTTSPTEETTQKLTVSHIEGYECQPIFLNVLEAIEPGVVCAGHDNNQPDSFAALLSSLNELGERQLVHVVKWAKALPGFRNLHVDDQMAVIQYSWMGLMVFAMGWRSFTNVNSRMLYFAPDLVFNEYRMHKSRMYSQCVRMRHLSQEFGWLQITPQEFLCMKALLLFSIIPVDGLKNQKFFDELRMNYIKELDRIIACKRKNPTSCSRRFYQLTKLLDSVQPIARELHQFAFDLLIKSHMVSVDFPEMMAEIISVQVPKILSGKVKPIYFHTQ
Method: White bars represent no steroid (ethanol control). Wherein glucocorticoid receptor (GR) and progesterone receptor (PR).
The cells were harvested 24 hours later and analyzed for luciferase activity. The data is normalized to protein that was measured using Bradford assay.
Sequence similarities of amino acids in the AR with related human steroid receptors (glucocorticoid receptor (GR) and progesterone receptor (PR)) are significant in some domains such as the DNA-binding-domain (DBD). Although the AR-NTD shares less than 15% homology with the PR and GR, these receptors do interact with some of the same proteins such as SRC-1 (steroid receptor coactivator-1). […] Cells were co-transfected with expression plasmids for full-length hGR and PRβ and the relative reporter (i.e., pGR-Luc or PRE-E1b-Luc reporters). Cells were then treated with ethanol vehicle, dexamethasone (GR), 4-pregnene-3,20 dione (progesterone) (PR) followed by measurement of luciferase activity.
Activation of the endogenous AR was measured in LNCaP human prostate cancer cells by measuring an androgen-responsive reporter containing androgen response elements (AREs). The PSA (6.1 kb)-luciferase reporter gene construct contains several well-characterized AREs and is induced by androgen.

[4] = system: PSA mRNA; experiment: Androgen-induced PSA mRNA levels in LNCaP cells (qRT-PCR); format: cell-based, human; conditions: 10 μg/ml, 1 hour pretreatment, R1881 1 nM, 16 hours
Method: Levels of PSA mRNA were measured by quantitative real-time (qRT)-PCR and normalized to levels of GAPDH mRNA (housekeeping gene). White bar: no R1881. Black bars: R1881 (1 nM). MNE: mean normalized expression. DMSO (no R1881) was arbitrarily set at 1.0 for each individual experiment. Bars represent the mean±SE from 3 separate experiments using triplicate technical samples from each experiment.
PSA is an androgen-regulated gene containing several well-characterized androgen response elements (AREs) in the enhancer and promoter regions. Levels of PSA mRNA are induced by androgen by a mechanism dependent androgen receptor. To test if sintokamides would also block endogenous gene expression induced by androgen, levels of PSA mRNA were measured in response to the synthetic androgen R1881.

With CCC(=O)N[C@H](C[C@H](C)C(Cl)(Cl)Cl)C(=O)N1C(=O)C=C(OC)[C@@H]1C[C@H](C)C(Cl)Cl [CB3.1, Sintokamide A] the “signs of toxicity (cell morphology)” value [1] was “no obvious signs of toxicity”, the “FSK-induced transactivation of the AR NTD” value [2] was “reduced FSK-induced transactivation of the AR NTD to baseline levels” and the “inhibition of R1881 induction of PSA (6.1)-luciferase” value ([3]; 1 hour pretreatment, R1881 1 nM, 24 hours) was “inhibition”. For the same molecule, the “AR activity measured with the PSA (6.1) luciferase reporter” value ([3]; steroid 10 nM, 24 h) was “strongly inhibited” and the “inhibition of androgen-induced levels of PSA mRNA” value [4] was “inhibit”.
